This assay deals with Glutamate receptor 2 (Homo sapiens, UniProt P42262). Nature of the assay: Inhibition of GluR2 receptor.

Consider two compounds from ChEMBL document CHEMBL1140073, “6-Azido-7-nitro-1,4-dihydroquinoxaline-2,3-dione (ANQX) forms an irreversible bond to the active site of the GluR2 AMPA receptor” (J Med Chem, 2008).

Sequence of Glutamate receptor 2 (P42262 whole entry): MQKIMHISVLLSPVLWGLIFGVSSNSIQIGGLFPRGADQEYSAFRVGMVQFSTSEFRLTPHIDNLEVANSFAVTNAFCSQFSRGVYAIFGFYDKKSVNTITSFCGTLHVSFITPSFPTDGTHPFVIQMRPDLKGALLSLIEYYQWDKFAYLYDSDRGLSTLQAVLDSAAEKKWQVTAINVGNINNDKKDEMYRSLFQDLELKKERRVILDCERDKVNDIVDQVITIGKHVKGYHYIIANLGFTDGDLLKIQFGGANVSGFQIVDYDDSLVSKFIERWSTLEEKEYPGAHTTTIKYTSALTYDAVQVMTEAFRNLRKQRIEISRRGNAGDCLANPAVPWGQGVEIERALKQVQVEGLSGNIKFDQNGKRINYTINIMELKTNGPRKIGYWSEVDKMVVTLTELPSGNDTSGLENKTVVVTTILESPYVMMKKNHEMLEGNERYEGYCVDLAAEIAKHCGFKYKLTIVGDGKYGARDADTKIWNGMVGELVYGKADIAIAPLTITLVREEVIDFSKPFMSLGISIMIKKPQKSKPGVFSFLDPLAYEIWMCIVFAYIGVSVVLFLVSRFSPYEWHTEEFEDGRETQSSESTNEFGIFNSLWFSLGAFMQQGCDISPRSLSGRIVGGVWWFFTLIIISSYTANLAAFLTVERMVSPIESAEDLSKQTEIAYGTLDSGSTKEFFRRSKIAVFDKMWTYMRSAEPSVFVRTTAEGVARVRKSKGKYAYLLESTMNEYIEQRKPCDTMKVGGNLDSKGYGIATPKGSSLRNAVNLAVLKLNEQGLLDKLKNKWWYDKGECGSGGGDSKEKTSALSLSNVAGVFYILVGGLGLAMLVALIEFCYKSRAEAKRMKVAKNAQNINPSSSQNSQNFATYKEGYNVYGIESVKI

The compound `O=c1[nH]c2cc3no[n+]([O-])c3cc2[nH]c1=O` returned an IC50 of 7.6 µM.
With `[N-]=[N+]=Nc1cc2[nH]c(=O)c(=O)[nH]c2cc1[N+](=O)[O-]` the figure was 1 µM.

In general, IC50 refers to the concentration that gives 50% inhibition.
